According to a melting point compilation (Tetko et al.; mined from patent text by program, amines drawn as free bases though some values may be those of a salt):

Row | melting point | SMILES
1 | 72 to 78 °C | S=C(NCCc1c[nH]cn1)NCCN(Cc1ccc(Cl)c(Cl)c1)c1ccc(Br)cn1
2 | 135 to 137 °C | O=S(=O)(c1ccc(F)cc1)n1ccc2ccccc21
3 | 187 to 188 °C | O=[N+]([O-])c1ccc(C=[N+]([O-])c2cccc(CO)c2)o1
4 | 221 to 223 °C | CCOCc1nc2c(N)nc3ccccc3c2n1Cc1cc(-c2ccccc2)on1
5 | 198 to 200 °C | COC(=O)c1ccc(NNC(=O)C(C)C)cc1S(N)(=O)=O
6 | 60 to 61 °C | O=S(=O)(Nc1ccccc1CO)C(F)(F)F
7 | 103 to 105 °C | CCCCOc1ccc(S(=O)(=O)NCCCCOc2ccc(-n3ccnc3)cc2)cc1
8 | 193 to 194 °C | CC(=O)OCC1OC(n2cc(Cc3ccc(OC(F)(F)F)cc3)c3c(Cl)cccc32)C(OC(C)=O)C(OC(C)=O)C1OC(C)=O (centres undefined)
9 | 173 to 175 °C | CCOC(=O)C1=CNC2=C(C(=S)Nc3ccccc3)CCC(C)N2C1=O (centres undefined)
10 | 113 to 114 °C | N#Cc1ccc2oc(CO)cc2c1
11 | 196 to 197 °C | CS(=O)(=O)c1nnc(-c2ccc3occ(-c4ccc(OC(F)(F)F)cc4)c3c2)o1
12 | 188 to 190 °C | O=C(O)C=C1CCC(n2nc(-c3c(-c4ccccc4)nn4ccccc34)ccc2=O)CC1 (centres undefined)
13 | 169 to 170 °C | CCN1c2ncc(COc3ccncc3)cc2C(=O)N(C)c2ccc(Cl)nc21
14 | 202 to 204 °C | CC(C)c1nc(C(C)C)c(C(O)c2ccccc2)c(-c2ccc(F)cc2)c1CO (centres undefined)
15 | 79 to 81 °C | CCCCCCCCCCCCOC(=O)c1ccc2oc3ccccc3c(=O)c2c1
16 | 93 to 95 °C | COc1cc2ccc(C(=O)CCCCBr)cc2cc1OC
17 | 171 °C | CC(Cc1nc(-c2ccccc2)nc2ccccc12)C(=O)N(C)C(C)C (centres undefined)
18 | 153 to 154 °C | COc1ccccc1Nc1cccc(C(=O)Nc2ccccc2)c1
19 | 114 to 118 °C | CC(C)c1ccc(C2(OC(=O)N(C)C)C(=O)c3ccccc3C2=O)c(O)c1
20 | 218 to 220 °C | CCOC(=O)c1csc(NC(=O)c2cc(OC)c(OC)cc2O)n1
21 | 168 to 171 °C | O=S(=O)(NCCCCl)c1ccc(Nc2ncnc3cc(Cl)ccc23)cc1
22 | 137 °C | CCOC(=O)c1c(Cl)nc(-c2ccc(N)cc2)c(N)c1C(=O)OCC

Row | melting point | SMILES
23 | 102 to 104 °C | CC(C)Oc1ccc2c(O)c(C(=O)NCCO)nc(Cl)c2c1
24 | 124 to 126 °C | CCOP(=O)(OCC)C(C)c1cn(C(c2ccccc2)(c2ccccc2)c2ccccc2)cn1 (centres undefined)
25 | 122 °C | CCCCN1CC[C@@H](CNC(=O)c2cc(Cl)c(N)c3c2OCCO3)[C@H](O)C1 (relative stereo)
26 | 67 to 69 °C | C[Si]1(C)CCCCCCCC[Si](C)(C)O[Si](C)(C)CCCCCCCC[Si](C)(C)O1
27 | 50.5 to 51.5 °C | Cc1cc(C2=C(C=O)C(C)(C)CC(C)(C)C2)ccc1F
28 | 120 to 121 °C | CCOC(=O)C1=C(C)NC(O)(C(F)(F)F)C(C(=O)OCC)C1c1cccc([N+](=O)[O-])c1 (centres undefined)
29 | 173 to 175 °C | CCN1C=C(C(=O)O)C(=O)CC1c1ccc2c(c1)OCO2 (centres undefined)
30 | 133 to 136 °C | O=C1Cc2cccc(-c3ccccc3)c2C1
31 | 144 to 145 °C | CCOc1cc(COc2nn(Cc3ccccc3)cc2C=O)ccc1OCc1nc(-c2ccco2)oc1C
32 | 110 to 114 °C | CCOC(=O)C(Cc1ccc(OCCBr)cc1)OCC (centres undefined)
33 | 208 °C | OC1CSC(Oc2cncc(-c3ccncc3Cl)c2)C(O)C1O (centres undefined)
34 | 173 °C | COc1ccc2ncc(Cl)c(OC[C@@H]3CC[C@@H](NC(=O)OC(C)(C)C)CO3)c2c1
35 | 137 to 138 °C | CCCCC[C@@H](CNC(=O)Nc1c(OC)ccc2c1CCCC2)c1cccc2c1OCO2
36 | 234 to 236 °C | CC(C)Oc1cc(OC(C)C)c2c(=O)cc(Sc3ccc(O)cc3)oc2c1
37 | 64 to 66 °C | COc1cc(C(=O)N2CCC(CCOS(C)(=O)=O)(c3ccc(Cl)c(Cl)c3)C2)cc(OC)c1OC (centres undefined)
38 | 156 to 158 °C | CC(C)CC(S)C(=O)NC(CC(C)C)C(=O)NC(Cc1ccc(-c2cccs2)nc1)C(=O)O (centres undefined)
39 | 273 to 276 °C | C(=C\c1cc(/C=C/c2ccc3cc[nH]c3c2)n[nH]1)/c1ccc(-c2ccccc2)cc1
40 | 156 °C | CCN1CC(OCC2CC2)(C(F)(F)F)c2cc(F)ccc2NC1=O (centres undefined)
41 | 101 to 104 °C | CCOC(=O)C(=CNC1CC1)C(=O)c1ccc(F)c(Cl)c1F
42 | 187 to 190 °C | Clc1ccc(CNc2nc(-c3cccc(Cl)n3)nc3ccccc23)cc1
43 | 117 °C | COc1cccc(C(=O)NCCc2ccc(-c3ccc(OC(C)(C)C(=O)O)cc3)cc2)c1
44 | 111 to 113 °C | CCSc1ccc(-c2ncco2)c2c1C(=O)CC(C)C2 (centres undefined)

Row | melting point | SMILES
45 | 210 to 212 °C | CC(C)c1cccc(F)c1NC(=S)N/N=C/c1ccc(-c2ncn(-c3ccc(OC(F)(F)F)cc3)n2)cc1
46 | 90 to 93 °C | COc1ccc2c(c1)CCC(CC#N)C2=O (centres undefined)
47 | 138 °C | CCOc1cc(C(=O)O)cc(N)c1-c1ccccc1
48 | 137 to 138 °C | N#Cc1ccc(-c2cccc(OS(N)(=O)=O)c2)cc1Cn1cncn1
49 | 230 to 232 °C | NC(=O)Nc1ccc2oc([N+](=O)[O-])c(-c3ccccc3)c2c1
50 | 201 to 202 °C | O=c1c2cc3ccccc3cc2oc2cc(OCC3CO3)cc(O)c12 (centres undefined)
51 | 275 to 285 °C | CON=C(C)c1cc(C#N)c(=O)[nH]c1C
52 | 101 to 102 °C | CCOC(=O)C1=Cc2cc(Cl)cc(Br)c2OC1C(F)(F)F (centres undefined)
53 | 74 to 75 °C | CCCCCCCCCCc1ccc(NC(=O)c2cccc(-c3ccccc3)c2O)cc1
54 | 20 °C | CCCCC(CC)COC(=O)CSCc1cc(C(C)(C)C)c(O)c(C(C)(C)C)c1 (centres undefined)
55 | 92.5 to 93 °C | Cc1nc(C(F)(F)F)ccc1C(Cl)=C1C(=O)C(C)(C)C(=O)C(C)(C)C1=O
56 | 130 to 144 °C | CC(=O)OCCOc1ncnc(NS(=O)(=O)c2ccc(C)cc2)c1C=O
57 | 178 to 181 °C | O=C1CCn2c3c(c4cccc1c42)CCN(C(=O)c1ccccc1)CC3
58 | 94 to 95 °C | Brc1ccc(C2=CCCC2)cc1
59 | 131 to 132 °C | CC(C)N1CCN(c2ccc(OCC(O)CC(O)(Cn3cncn3)c3ccc(Cl)cc3Cl)cc2)CC1 (centres undefined)
60 | 244 to 245 °C | COc1ccc2c(c1)N(Cc1ccccc1)C(=O)[C@H]1CCC[C@H]1N2C(=O)CN1C(=O)c2ccccc2C1=O (relative stereo)
61 | 189 to 190 °C | CCCCN1CCC(NC(=O)c2ccc(NCc3ccnc4ccccc34)cc2)CC1
62 | 192 to 195 °C | COc1ccc(N2CCN(c3c(C)c(C)c4c(c3-c3ccoc3)CC(C)(C)O4)CC2)cc1
63 | 143 to 146 °C | COc1ccc(-c2cn[nH]c2N)cc1OC
64 | 169 to 172 °C | CN(C)C(=O)COc1ccc2c(c1)C[C@@H](NC[C@H](O)c1ccc(O)cc1)CC2
65 | 228 to 230 °C | COc1ncccc1C(=O)NC1CN(C)CCn2c1nc(-c1ccncn1)cc2=O (racemic)
66 | > 320 °C | COc1ccc(C=Cc2nc3c(c(=O)n(C)c(=O)n3C)n2C)cc1

Row | SMILES | melting point
67 | CCCCCCSC1c2cccc(O)c2C(=O)c2c(O)cccc21 | 49 to 50 °C
68 | O=C(Oc1nc(Cl)c(Cl)cc1Cl)C(Cl)(Cl)Cl | 58 to 60 °C
69 | CCCc1c(C(=O)C2CC2)c2ccc(C(N)=O)cc2n1Cc1ccccc1Cl | 162 to 164 °C
